Measured values from patent US20020111274A1, “1-alkyl-3-[1-(substituted phenyl) benzotriazol-6-yl] uracils” (BASF Aktiengesellschaft, priority 2000, published 2002).

Experiments:
Set-up in all cases: scale not given here
ECHOG Barnyardgrass [1] = test: Preemergence herbicidal evaluation, ECHOG; type: in vivo, Echinochloa crus-galli, (L.) Beau; settings: for ECHCG herbicidal rating: preemergence; for Preemergence herbicidal rating, ECHCG: rated four to five weeks after treatment
In short: (§1)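 Visual ratings were taken four to five weeks after application. Before that, cups sown with seed in potting soil received a spray of compound dissolved in aqueous acetone, equivalent to about 0.013 to 0.800 kg/ha, and stood on greenhouse benches under conventional care.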

GALAP Galium [2] = test: Postemergence herbicidal evaluation, GALAP; type: in vivo, Galium aparine
In short: (§2)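 Seedlings grown about two weeks were sprayed with compound in 80/20 acetone/water containing 1.0% methylated seed oil, at the equivalent of about 0.006 to 0.400 kg/ha, through a nozzle at 40 psi. Plants were kept in the greenhouse and rated visually about two to three weeks after treatment.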

GLXMAW Soybean, Williams [3] = test: Postemergence herbicidal evaluation, GLXMAW; type: in vivo, Glycine max, (L.) Merr. cv Williams
In short: as §2

SETVI Foxtail, Green [4] = test: Postemergence herbicidal evaluation, SETVI; type: in vivo, Setaria viridis, (L.) Beau
In short: as §2

AMBEL Ragweed, Common [5] = test: Preemergence herbicidal evaluation, AMBEL; type: in vivo, Ambrosia artemisifolia, L.; settings: for AMBEL herbicidal rating: preemergence; for Preemergence herbicidal rating, AMBEL: rated four to five weeks after treatment
In short: as §1

ORYSAT Rice, Tebonnet [6] = test: Preemergence herbicidal evaluation, ORYSAT; type: in vivo, Oryza sativa, (L.); settings: for ORYSAT herbicidal rating: preemergence; for Preemergence herbicidal rating, ORYSAT: rated four to five weeks after treatment
In short: as §1

GLXMAW Soybean, Williams [7] = test: Preemergence herbicidal evaluation, GLXMAW; type: in vivo, Glycine max, (L.) Merr. cv Williams; settings: for GLXMAW herbicidal rating: preemergence; for Preemergence herbicidal rating, GLXMAW: rated four to five weeks after treatment
In short: as §1

CASOB Sicklepod [8] = test: Postemergence herbicidal evaluation, CASOB; type: in vivo, Cassia obtusifolia, L.
In short: as §2

GALAP Galium [9] = test: Preemergence herbicidal evaluation, GALAP; type: in vivo, Galium aparine; settings: for GALAP herbicidal rating: preemergence; for Preemergence herbicidal rating, GALAP: rated four to five weeks after treatment
In short: as §1

[10] = test system: IPOHE Morningglory, Ivyleaf; test: Postemergence herbicidal evaluation, IPOHE; type: in vivo, Ipomoea hederacea, (L.) Jacq.
In short: as §2

ZEAMX Corn, Field [11] = test: Preemergence herbicidal evaluation, ZEAMX; type: in vivo, Zea mays, L. (Sammel-Bezeichnung); settings: for ZEAMX herbicidal rating: preemergence; for Preemergence herbicidal rating, ZEAMX: rated four to five weeks after treatment
In short: as §1

ECHOG Barnyardgrass [12] = test: Postemergence herbicidal evaluation, ECHOG; type: in vivo, Echinochloa crus-galli, (L.) Beau
In short: as §2

ABUTH Velvetleaf [13] = test: Preemergence herbicidal evaluation, ABUTH; type: in vivo, Abutilon theophrasti, Medic.; settings: for ABUTH herbicidal rating: preemergence
In short: as §1

SETVI Foxtail, Green [14] = test: Preemergence herbicidal evaluation, SETVI; type: in vivo, Setaria viridis, (L.) Beau; settings: for SETVI herbicidal rating: preemergence; for Preemergence herbicidal rating, SETVI: rated four to five weeks after treatment
In short: as §1

[15] = test system: IPOHE Morningglory, Ivyleaf; test: Preemergence herbicidal evaluation, IPOHE; type: in vivo, Ipomoea hederacea, (L.) Jacq.; settings: for IPOHE herbicidal rating: preemergence; for Preemergence herbicidal rating, IPOHE: rated four to five weeks after treatment
In short: as §1

[16] = test system: CHEAL Lambsquarters, Common; test: Postemergence herbicidal evaluation, CHEAL; type: in vivo, Chenopodium album, L.
In short: as §2

ORYSAT Rice, Tebonnet [17] = test: Postemergence herbicidal evaluation, ORYSAT; type: in vivo, Oryza sativa, (L.)
In short: as §2

[18] = test system: CHEAL Lambsquarters, Common; test: Preemergence herbicidal evaluation, CHEAL; type: in vivo, Chenopodium album, L.; settings: for CHEAL herbicidal rating: preemergence; for Preemergence herbicidal rating, CHEAL: rated four to five weeks after treatment
In short: as §1

ZEAMX Corn, Field [19] = test: Postemergence herbicidal evaluation, ZEAMX; type: in vivo, Zea mays, L. (Sammel-Bezeichnung)
In short: as §2

ABUTH Velvetleaf [20] = test: Postemergence herbicidal evaluation, ABUTH; type: in vivo, Abutilon theophrasti, Medic.
In short: as §2

[21] = test system: TRZAWR Wheat, Winter, cv Riband; test: Preemergence herbicidal evaluation, TRZAWR; type: in vivo, Triticum aestivum; settings: for TRZAWR herbicidal rating: preemergence; for Preemergence herbicidal rating, TRZAWR: rated four to five weeks after treatment
In short: as §1

AMBEL Ragweed, Common [22] = test: Postemergence herbicidal evaluation, AMBEL; type: in vivo, Ambrosia artemisifolia, L.
In short: as §2

CASOB Sicklepod [23] = test: Preemergence herbicidal evaluation, CASOB; type: in vivo, Cassia obtusifolia, L.; settings: for CASOB herbicidal rating: preemergence; for Preemergence herbicidal rating, CASOB: rated four to five weeks after treatment
In short: as §1

[24] = test system: TRZAWR Wheat, Winter, cv Riband; test: Postemergence herbicidal evaluation, TRZAWR; type: in vivo, Triticum aestivum
In short: as §2

[25] = 0.016 kg/ha, postemergence spray, rated about two-three weeks after treatment
[26] = 0.032 kg/ha, postemergence spray, rated about two-three weeks after treatment
[27] = 0.062 kg/ha, postemergence spray, rated about two-three weeks after treatment
[28] = rate 0.008 kg/ha, rated two - three weeks after treatment

SMILES: Cn1c(C(F)(F)F)cc(=O)n(-c2cc3c(cc2F)nnn3-c2ccc(OCC(=O)O)cc2)c1=O [Example 44]
- ECHCG herbicidal rating (ECHOG Barnyardgrass [1]; rate 0.062 kg/ha): 0.0
- ECHCG herbicidal rating (ECHOG Barnyardgrass [1]; rate 0.125 kg/ha): 0.0
- Preemergence herbicidal rating, ECHCG (ECHOG Barnyardgrass [1]; rate 0.016 kg/ha): 0.0
- Preemergence herbicidal rating, ECHCG (ECHOG Barnyardgrass [1]; rate 0.032 kg/ha): 0.0
- Postemergence herbicidal rating GALAP (GALAP Galium [2]; [25]): 0.0
- Postemergence herbicidal rating GALAP (GALAP Galium [2]; [26]): 1.0
- Postemergence herbicidal rating GALAP (GALAP Galium [2]; [27]): 2.0
- Postemergence herbicidal rating GALAP (GALAP Galium [2]; [28]): 0.0
- Postemergence herbicidal rating GLXMAW (GLXMAW Soybean, Williams [3]; [25]): 6.5
- Postemergence herbicidal rating GLXMAW (GLXMAW Soybean, Williams [3]; [26]): 6.5
- Postemergence herbicidal rating GLXMAW (GLXMAW Soybean, Williams [3]; [27]): 7.0
- Postemergence herbicidal rating GLXMAW (GLXMAW Soybean, Williams [3]; [28]): 5.0
- Postemergence herbicidal rating SETVI (SETVI Foxtail, Green [4]; [25]): 4.0
- Postemergence herbicidal rating SETVI (SETVI Foxtail, Green [4]; [26]): 7.0
- Postemergence herbicidal rating SETVI (SETVI Foxtail, Green [4]; [27]): 7.0
- Postemergence herbicidal rating SETVI (SETVI Foxtail, Green [4]; [28]): 4.0
- AMBEL herbicidal rating (AMBEL Ragweed, Common [5]; rate 0.062 kg/ha): 0.0
- AMBEL herbicidal rating (AMBEL Ragweed, Common [5]; rate 0.125 kg/ha): 0.0
- Preemergence herbicidal rating, AMBEL (AMBEL Ragweed, Common [5]; rate 0.016 kg/ha): 1.0
- Preemergence herbicidal rating, AMBEL (AMBEL Ragweed, Common [5]; rate 0.032 kg/ha): 0.0
- ORYSAT herbicidal rating (ORYSAT Rice, Tebonnet [6]; rate 0.062 kg/ha): 5.0
- ORYSAT herbicidal rating (ORYSAT Rice, Tebonnet [6]; rate 0.125 kg/ha): 5.0
- Preemergence herbicidal rating, ORYSAT (ORYSAT Rice, Tebonnet [6]; rate 0.016 kg/ha): 0.0
- Preemergence herbicidal rating, ORYSAT (ORYSAT Rice, Tebonnet [6]; rate 0.032 kg/ha): 0.0
- GLXMAW herbicidal rating (GLXMAW Soybean, Williams [7]; rate 0.062 kg/ha): 0.0
- GLXMAW herbicidal rating (GLXMAW Soybean, Williams [7]; rate 0.125 kg/ha): 0.0
- Preemergence herbicidal rating, GLXMAW (GLXMAW Soybean, Williams [7]; rate 0.016 kg/ha): 0.0
- Preemergence herbicidal rating, GLXMAW (GLXMAW Soybean, Williams [7]; rate 0.032 kg/ha): 0.0
- Postemergence herbicidal rating CASOB (CASOB Sicklepod [8]; [25]): 0.0
- Postemergence herbicidal rating CASOB (CASOB Sicklepod [8]; [26]): 1.0
- Postemergence herbicidal rating CASOB (CASOB Sicklepod [8]; [27]): 2.0
- Postemergence herbicidal rating CASOB (CASOB Sicklepod [8]; [28]): 0.0
- GALAP herbicidal rating (GALAP Galium [9]; rate 0.062 kg/ha): 4.0
- GALAP herbicidal rating (GALAP Galium [9]; rate 0.125 kg/ha): 7.0
- Preemergence herbicidal rating, GALAP (GALAP Galium [9]; rate 0.016 kg/ha): 3.0
- Preemergence herbicidal rating, GALAP (GALAP Galium [9]; rate 0.032 kg/ha): 5.0
- Postemergence herbicidal rating IPOHE [10, 25]: 7.0
- Postemergence herbicidal rating IPOHE [10, 26]: 9.0
- Postemergence herbicidal rating IPOHE [10, 27]: 9.0
- Postemergence herbicidal rating IPOHE [10, 28]: 7.0
- ZEAMX herbicidal rating (ZEAMX Corn, Field [11]; rate 0.062 kg/ha): 1.0
- ZEAMX herbicidal rating (ZEAMX Corn, Field [11]; rate 0.125 kg/ha): 1.0
- Preemergence herbicidal rating, ZEAMX (ZEAMX Corn, Field [11]; rate 0.016 kg/ha): 0.0
- Preemergence herbicidal rating, ZEAMX (ZEAMX Corn, Field [11]; rate 0.032 kg/ha): 0.0
- Postemergence herbicidal rating ECHCG (ECHOG Barnyardgrass [12]; [25]): 4.0
- Postemergence herbicidal rating ECHCG (ECHOG Barnyardgrass [12]; [26]): 6.0
- Postemergence herbicidal rating ECHCG (ECHOG Barnyardgrass [12]; [27]): 6.0
- Postemergence herbicidal rating ECHCG (ECHOG Barnyardgrass [12]; [28]): 3.0
- ABUTH herbicidal rating (ABUTH Velvetleaf [13]; rate 0.062 kg/ha): 7.0
- ABUTH herbicidal rating (ABUTH Velvetleaf [13]; rate 0.125 kg/ha): 9.0
- Preemergence herbicidal rating, ABUTH (ABUTH Velvetleaf [13]; rate 0.032 kg/ha, rated four to five weeks after treatment): 0.0
- SETVI herbicidal rating (SETVI Foxtail, Green [14]; rate 0.062 kg/ha): 3.0
- SETVI herbicidal rating (SETVI Foxtail, Green [14]; rate 0.125 kg/ha): 9.0
- Preemergence herbicidal rating, SETVI (SETVI Foxtail, Green [14]; rate 0.016 kg/ha): 0.0
- Preemergence herbicidal rating, SETVI (SETVI Foxtail, Green [14]; rate 0.032 kg/ha): 0.0
- IPOHE herbicidal rating ([15]; rate 0.062 kg/ha): 0.0
- IPOHE herbicidal rating ([15]; rate 0.125 kg/ha): 2.0
- Preemergence herbicidal rating, IPOHE ([15]; rate 0.016 kg/ha): 0.0
- Preemergence herbicidal rating, IPOHE ([15]; rate 0.032 kg/ha): 0.0
- Postemergence herbicidal rating CHEAL [16, 25]: 7.0
- Postemergence herbicidal rating CHEAL [16, 26]: 6.0
- Postemergence herbicidal rating CHEAL [16, 27]: 9.0
- Postemergence herbicidal rating CHEAL [16, 28]: 5.0
- Postemergence herbicidal rating ORYSAT (ORYSAT Rice, Tebonnet [17]; [25]): 2.5
- Postemergence herbicidal rating ORYSAT (ORYSAT Rice, Tebonnet [17]; [26]): 2.5
- Postemergence herbicidal rating ORYSAT (ORYSAT Rice, Tebonnet [17]; [27]): 3.0
- Postemergence herbicidal rating ORYSAT (ORYSAT Rice, Tebonnet [17]; [28]): 2.5
- CHEAL herbicidal rating ([18]; rate 0.062 kg/ha): 9.0
- CHEAL herbicidal rating ([18]; rate 0.125 kg/ha): 9.0
- Preemergence herbicidal rating, CHEAL ([18]; rate 0.016 kg/ha): 9.0
- Preemergence herbicidal rating, CHEAL ([18]; rate 0.032 kg/ha): 9.0
- Postemergence herbicidal rating ZEAMX (ZEAMX Corn, Field [19]; [25]): 6.5
- Postemergence herbicidal rating ZEAMX (ZEAMX Corn, Field [19]; [26]): 6.5
- Postemergence herbicidal rating ZEAMX (ZEAMX Corn, Field [19]; [27]): 7.0
- Postemergence herbicidal rating ZEAMX (ZEAMX Corn, Field [19]; [28]): 4.5
- Postemergence herbicidal rating ABUTH (ABUTH Velvetleaf [20]; [25]): 9.0
- Postemergence herbicidal rating ABUTH (ABUTH Velvetleaf [20]; [26]): 7.0
- Postemergence herbicidal rating ABUTH (ABUTH Velvetleaf [20]; [27]): 9.0
- Postemergence herbicidal rating ABUTH (ABUTH Velvetleaf [20]; [28]): 9.0
- TRZAWR herbicidal rating ([21]; rate 0.062 kg/ha): 1.0
- TRZAWR herbicidal rating ([21]; rate 0.125 kg/ha): 1.0
- Preemergence herbicidal rating, TRZAWR ([21]; rate 0.016 kg/ha): 0.0
- Preemergence herbicidal rating, TRZAWR ([21]; rate 0.032 kg/ha): 0.0
- Postemergence herbicidal rating AMBEL (AMBEL Ragweed, Common [22]; [25]): 3.0
- Postemergence herbicidal rating AMBEL (AMBEL Ragweed, Common [22]; [26]): 6.0
- Postemergence herbicidal rating AMBEL (AMBEL Ragweed, Common [22]; [27]): 7.0
- Postemergence herbicidal rating AMBEL (AMBEL Ragweed, Common [22]; [28]): 3.0
- CASOB herbicidal rating (CASOB Sicklepod [23]; rate 0.062 kg/ha): 2.0
- CASOB herbicidal rating (CASOB Sicklepod [23]; rate 0.125 kg/ha): 0.0
- Preemergence herbicidal rating, CASOB (CASOB Sicklepod [23]; rate 0.016 kg/ha): 0.0
- Preemergence herbicidal rating, CASOB (CASOB Sicklepod [23]; rate 0.032 kg/ha): 1.0
- Postemergence herbicidal rating TRZAWR [24, 25]: 4.0
- Postemergence herbicidal rating TRZAWR [24, 26]: 3.5
- Postemergence herbicidal rating TRZAWR [24, 27]: 4.0
- Postemergence herbicidal rating TRZAWR [24, 28]: 3.0
